We go through 1 compound from patent US9918968B2, “Rapamycin analogs targeting proteasome function in the treatment of cancer” (THE BOARD OF REGENTS OF THE UNIVERSITY OF TEXAS SYSTEM, priority 2013, dated 2018).

The subject of assay [1] is T1, human 20S proteasome, T-L peptidase.
T1 construct: purchased Enzo LifeSciences
The assay can be described thus: T-L peptidase activity of purified human 20S proteasome (BocLRR-MCA). It is filed as biochemical. The protocol: Human purified proteasome complexes were purchased from Enzo LifeSciences or Boston Biochemicals (19S complex). BODIPY-casein (Invitrogen/Molecular Probes) was used as a model protein substrate, with increasing fluorescence of BODIPY labeled peptide products of degradation monitored for up to 8 hours at 37° C. The peptidase activity of the enzyme was measured as arbitrary intensity units of the released fluorescent group 7-amino-4-methylcoumarin (AMC) from peptide substrates, as described. The common substrates specific for the three kinds of active sites: succinyl-LeuLeuValTyr-7-amido-4-methylcoumarin (Suc-LLVY-MCA; for the ChT-L activity; Bachem), butoxycarbonyl-LeuArgArg-MCA (BocLRR-MCA; for T-L; Bachem) and carbobenzoxy-LeuLeuGlu-MCA (CbzLLE-MCA; for PGPH; Enzo Life Sciences International, Inc.) were used at 100 μM final concentrations, unless stated otherwise (Gaczynska and Osmulski, 2005). Proteasome substrates, rapamycin, its derivatives, and competing peptides were stocked in DMSO and diluted 100-fold in the reaction mixtures. The Rpt5 and PA200 C-terminal peptides were synthesized in the Departmental Peptide Synthesis Core using the standard SPPS chemistry. To activate the latent 20S proteasome, 0.005% (final concentration) of sodium dodecyl sulfate (SDS) was used. The reactions were carried out in 96 well plates, with 2.3 nM proteasome and other components as indicated dissolved in 50 mM Tris-HCl buffer (pH 8.0) and incubated at 37° C. for up to 1 hour. The fluorescence of products was monitored every 2 minutes with a Fluoroskan Ascent plate reader. Reaction rates were calculated from smoothed linear segment of kinetic curves using OriginPro 8.6 (OriginLabs, Northampton, Mass.). For the determination of an inhibition type, at least six distinct substrate concentrations and two inhibitor concentrations were used. The kinetic parameters of inhibition were analyzed in terms of the Michaelis-Menten formalism using the enzyme kinetic module of SigmaPlot v.12 (Systat Software, Inc, San Jose, Calif.) to perform the respective calculations.
IC50 values (a drug concentration causing 50% inhibition of the indicated enzymatic activity) were calculated for ChT-L and PGPH peptidases. Kd (dissociation constant) and Bmax (maximal activation effect achieved; in % above the control activity) values were calculated for the T-L peptidase. Mean±SD from n=2 or 3 experiments, or data from representative experiments set in duplicates or triplicates, are presented in the table. All three peptidase activities changed by no more than ±20%, without a concentration-dependent trend, upon treatment with up to 10 μM of rapamycin unrelated mTOR inhibitors PI-103 or NVP-BEZ235, in two independent experiments.

The next assay deals with RPMI 8226 myeloma cells. The assay can be described thus: Live/dead cell count, RPMI 8226 myeloma cells. It is filed as cell-based, human. Particulars: 48 hrs. The protocol:
(§1) Culture Collection; ATCC) were cultured according to ATCC specifications: HeLa.S3 cervical adenocarcinoma, MCF7 breast adenocarcinoma, MDA-MB-231 breast adenocarcinoma (representing triple negative breast cancer), and RPMI 8226 myeloma. The cells were grown in 24 or 12-well cell culture plates. When the cells reached about 60% confluency (surface-growing HeLa.S3,MCF7 and MDA-MB-231) or a density of about 7×10^5 (suspension-growing RPMI 8226), the inhibitors dissolved in DMSO or the solvent (DMSO) diluted in respective culture medium were added and the cells were further cultured for additional 48 hours. […] The final concentration of the solvent was 1% (vol/vol). The number of live and dead cells after the treatment was approximated with calcein AM and ethidium homodimer (LiveDead test, Invitrogen) according to manufacturer's protocol, or by a Trypan Blue exclusion assay. In short, the cells after the treatment were washed three times with PBS and overlaid (surface-growing) or mixed (suspension-growing) with 4 microM calcein AM and 2 microM ethidium homodimer in PBS. Fluorescence of calcein and DNA-bound ethidium homodimer was measured with Fluoroskan Ascent plate reader, at 485 nm (excitation)/538 nm (emission) and 530 nm/619 nm, respectively. The cell counts were approximated using standard curves of live and digitonin-killed cells prepared for each strain. Alternatively, after cell treatment the medium was removed, the surface growing cells were overlaid with Trypan Blue solution, and the colorless (live) and blue-colored (dead) cells were counted under the inverted microscope.

The test system of assay [2] is MCF7 breast carcinoma cells. In words: Live/dead cell count, MCF7 cells. It is filed as cell-based, human. To be noted: seco-rapamycin alone, 48 hrs, 100% = total cell count in control. The protocol:
as §1, with “In short, the cells after the treatment were washed three times with PBS and overlaid (surface-growing) or mixed (suspension-growing) with 4 microM calcein AM and 2 microM ethidium homodimer in PBS.” left out, “The cell counts were approximated using standard curves of live and digitonin-killed cells prepared for each strain.” left out

By Kd is commonly meant the constant that tells how readily two partners part at equilibrium. Low values mean tighter binding, high ones weaker binding. With `CO[C@@H](C[C@@H]1CC[C@@H](C)[C@](O)(C(=O)C(=O)N2CCCC[C@H]2C(=O)[O-])O1)/C(C)=C/C=C/C=C/[C@@H](C)C[C@@H](C)C(=O)[C@H](OC)[C@H](O)/C(C)=C/[C@@H](C)C(=O)/C=C/[C@H](C)C[C@@H]1CC[C@@H](O)[C@H](OC)C1.[Na+]` [seco-rapamycin], the “activation of post-basic (T-L) cleavages” value in assay [1] (5 μM) was roughly 2 fold. Besides, the Kd in assay [1] (activation of T-L peptidase) was 5.33 µM. Also, the “Bmax [%]: T-L” value in assay [1] (maximal activation effect, % above the control activity) is 77%. In addition, the “drop in the live cell count” value with RPMI 8226 myeloma cells (100 nM) is listed as 50%. For the same compound, the cells alive entry in the assay with RPMI 8226 myeloma cells (200 nM) is given as “only one-third of the control cells alive”. In addition, the dead cells count result in assay [2] is “about 60%”.
